Assay results as given in publication PMC3101337, “Interactions of the Melanocortin-4 Receptor with the Peptide Agonist NDP-MSH” (Journal of Molecular Biology, 2010).

Target: T1, hMC4R mutant L106C (Homo sapiens, UniProt P32245, L106C)
T1 construct: expressed in transfected cells; host or cells: HEK293 CRE-Luciferase cells; mutant made by QuikChange on pcDNA3-MC4R
Test: CRE-Luciferase cAMP activity assay, L106C MC4R
Type: cell-based
Conditions: L106C MC4R in HEK293 CRE-Luciferase cells, mean ± SEM, N = 3, NA = no activity, read-out: Ligand pEC50 (converted)
Description: Twenty-four hours posttransfection, HEK293 CRE-Luciferase cells were plated onto 96-well black-wall, clear-bottom, poly-D-lysine-coated microplates (Corning Costar) at a density of 50,000 cells/well and cultured for a further 12–18 h. […] Microtiter plates were incubated for 4 h at 37 °C, after which Luclite® reagent (Perkin-Elmer) was added to each well. The plates were sealed and subjected to dark adaptation for 5 min at room temperature. Luciferase activity was determined by scintillation counting using a TOPCount scintillation counter (Perkin-Elmer).
All measurements, except where stated, were carried out in triplicate in three independent experiments. The values quoted and depicted graphically are the means of independent determinations with the standard error of the mean. […] In a similar fashion, EC50 values were calculated from the fit of sigmoidal concentration–response curves (three-parameter fit). pIC50 refers to − log IC50, and pEC50 refers to − log EC50.

T1 sequence (P32245 whole entry L106C): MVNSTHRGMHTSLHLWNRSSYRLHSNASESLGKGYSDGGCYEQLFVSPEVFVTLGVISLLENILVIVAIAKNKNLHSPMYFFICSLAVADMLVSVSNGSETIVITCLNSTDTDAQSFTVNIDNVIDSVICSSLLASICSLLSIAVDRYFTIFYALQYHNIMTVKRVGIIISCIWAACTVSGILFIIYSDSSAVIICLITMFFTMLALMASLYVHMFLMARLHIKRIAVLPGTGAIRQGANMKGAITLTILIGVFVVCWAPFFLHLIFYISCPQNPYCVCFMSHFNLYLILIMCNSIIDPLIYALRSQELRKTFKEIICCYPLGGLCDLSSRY

An EC50 of 6.46 nM was found for `CCCC[C@H](NC(=O)[C@H](CO)NC(=O)[C@H](Cc1ccc(O)cc1)NC(=O)[C@H](CO)NC(=O)CCCC[C@@H]1SC[C@@H]2NC(=O)N[C@@H]21)C(=O)N[C@@H](CCC(=O)O)C(=O)N[C@@H](Cc1c[nH]cn1)C(=O)N[C@H](Cc1ccccc1)C(=O)N[C@@H](CS)C(=O)N[C@@H](Cc1c[nH]c2ccccc12)C(=O)NCC(=O)N[C@@H](CCCCN)C(=O)N1CCC[C@H]1C(=O)N[C@H](C(N)=O)C(C)C` [Peptide 8] in this work.
